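How tested: cells in 96-well plates exposed to compound for 48 hours at five concentrations. The concentration for 50% growth inhibition is given as GI50. TGI marks complete inhibition of growth.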
Assays:
Experiment in all cases: NCI anticancer screen, dose series, 48 h
MDA-MB-435 = test system: MDA-MB-435
A549 NSCLC = test system: A549 NSCLC
HT29 colon = test system: HT29 colon
OVCAR-3 ovarian = test system: OVCAR-3 ovarian
OVCAR-4 ovarian = test system: OVCAR-4 ovarian
SF-268 CNS = test system: SF-268 CNS
A498 renal = test system: A498 renal
BT-549 breast = test system: BT-549 breast
CCRF-CEM leukemia = test system: CCRF-CEM leukemia
CAKI-1 renal = test system: CAKI-1 renal
K-562 leukemia = test system: K-562 leukemia
UO-31 renal = test system: UO-31 renal
M14 melanoma = test system: M14 melanoma
NCI-H460 lung = test system: NCI-H460 lung
UACC-62 melanoma = test system: UACC-62 melanoma
HL-60(TB) leukemia = test system: HL-60(TB) leukemia
MALME-3M melanoma = test system: MALME-3M melanoma
MDA-MB-231 breast = test system: MDA-MB-231 breast
HS 578T breast = test system: HS 578T breast
LOX IMVI melanoma = test system: LOX IMVI melanoma
T-47D breast = test system: T-47D breast
OVCAR-5 ovarian = test system: OVCAR-5 ovarian
PC-3 prostate = test system: PC-3 prostate
RPMI-8226 leukemia = test system: RPMI-8226 leukemia
SNB-19 CNS = test system: SNB-19 CNS
MOLT-4 leukemia = test system: MOLT-4 leukemia
NCI-H226 lung = test system: NCI-H226 lung
SNB-75 CNS = test system: SNB-75 CNS
SR leukemia = test system: SR leukemia
NCI-H522 lung = test system: NCI-H522 lung
IGROV1 ovarian = test system: IGROV1 ovarian
SK-MEL-28 melanoma = test system: SK-MEL-28 melanoma
SK-MEL-2 melanoma = test system: SK-MEL-2 melanoma
U251 CNS = test system: U251 CNS
COLO 205 colon = test system: COLO 205 colon
SN12C renal = test system: SN12C renal
UACC-257 melanoma = test system: UACC-257 melanoma
ACHN renal = test system: ACHN renal
SF-295 CNS = test system: SF-295 CNS
HOP-62 NSCLC = test system: HOP-62 NSCLC
SW-620 colon = test system: SW-620 colon
SK-MEL-5 melanoma = test system: SK-MEL-5 melanoma
RXF 393 renal = test system: RXF 393 renal
KM12 colon = test system: KM12 colon
HCT-15 colon = test system: HCT-15 colon
HCT-116 colon = test system: HCT-116 colon
HCC-2998 colon = test system: HCC-2998 colon
NCI/ADR-RES ovarian = test system: NCI/ADR-RES ovarian
NCI-H23 lung = test system: NCI-H23 lung
TK-10 renal = test system: TK-10 renal
786-0 renal = test system: 786-0 renal
DU-145 prostate = test system: DU-145 prostate
MCF7 breast = test system: MCF7 breast
SK-OV-3 ovarian = test system: SK-OV-3 ovarian
OVCAR-8 ovarian = test system: OVCAR-8 ovarian
SF-539 CNS = test system: SF-539 CNS
HOP-92 NSCLC = test system: HOP-92 NSCLC
EKVX NSCLC = test system: EKVX NSCLC

`Nc1ccccc1SC(CC(=O)c1ccccc1)c1ccc([N+](=O)[O-])cc1` (stereo unspecified) showed a GI50 (MDA-MB-435) of 14.3 µM, a TGI (MDA-MB-435) of 28 µM and a GI50 (A549 NSCLC) of 16.6 µM. It also gave a TGI (A549 NSCLC) of 32.6 µM, a GI50 (HT29 colon) of 4.3 µM and a TGI (HT29 colon) of 14.6 µM. The GI50 (OVCAR-3 ovarian) was 11.4 µM, the TGI (OVCAR-3 ovarian) was 23.7 µM and the GI50 (OVCAR-4 ovarian) was 12.6 µM. The TGI (OVCAR-4 ovarian) was 25.9 µM, the GI50 (SF-268 CNS) was 12.4 µM and the TGI (SF-268 CNS) was 25.8 µM. The GI50 (A498 renal) was 14.3 µM, the TGI (A498 renal) was 27.7 µM and the GI50 (BT-549 breast) was 13.6 µM. For the same compound, the TGI (BT-549 breast) was 26.6 µM, the GI50 (CCRF-CEM leukemia) was 13.7 µM and the TGI (CCRF-CEM leukemia) was 46.7 µM. It also gave a GI50 (CAKI-1 renal) of 15.2 µM, a TGI (CAKI-1 renal) of 28.8 µM and a GI50 (K-562 leukemia) of 3.91 µM. It also gave a TGI (K-562 leukemia) of 14.8 µM, a GI50 (UO-31 renal) of 7.75 µM and a TGI (UO-31 renal) of 21.5 µM. The GI50 (M14 melanoma) was 13.8 µM, the TGI (M14 melanoma) was 27.8 µM and the GI50 (NCI-H460 lung) was 17.3 µM. For the same compound, the TGI (NCI-H460 lung) was 36 µM, the GI50 (UACC-62 melanoma) was 12.1 µM and the TGI (UACC-62 melanoma) was 24.5 µM. For the same compound, the GI50 (HL-60(TB) leukemia) was 12.6 µM, the TGI (HL-60(TB) leukemia) was 35.2 µM and the GI50 (MALME-3M melanoma) was 15.3 µM. The TGI (MALME-3M melanoma) was 30.3 µM, the GI50 (MDA-MB-231 breast) was 11.8 µM and the TGI (MDA-MB-231 breast) was 24.1 µM. The GI50 (HS 578T breast) was 18.1 µM, the TGI (HS 578T breast) was 47.6 µM and the GI50 (LOX IMVI melanoma) was 1.91 µM. It also gave a TGI (LOX IMVI melanoma) of 4.15 µM, a GI50 (T-47D breast) of 12.1 µM and a TGI (T-47D breast) of 36.3 µM. For the same compound, the GI50 (OVCAR-5 ovarian) was 16.6 µM, the TGI (OVCAR-5 ovarian) was 30.6 µM and the GI50 (PC-3 prostate) was 10.3 µM. It also gave a TGI (PC-3 prostate) of 22.4 µM, a GI50 (RPMI-8226 leukemia) of 2.91 µM and a TGI (RPMI-8226 leukemia) of 9.06 µM. For the same compound, the GI50 (SNB-19 CNS) was 12.2 µM, the TGI (SNB-19 CNS) was 24.6 µM and the GI50 (MOLT-4 leukemia) was 13.5 µM. The TGI (MOLT-4 leukemia) was 60.1 µM, the GI50 (NCI-H226 lung) was 18 µM and the TGI (NCI-H226 lung) was 36.3 µM. The GI50 (SNB-75 CNS) was 11.2 µM, the TGI (SNB-75 CNS) was 23.3 µM and the GI50 (SR leukemia) was 2.57 µM. For the same compound, the TGI (SR leukemia) was 7.38 µM, the GI50 (NCI-H522 lung) was 12.9 µM and the TGI (NCI-H522 lung) was 27 µM. For the same compound, the GI50 (IGROV1 ovarian) was 5.69 µM, the TGI (IGROV1 ovarian) was 21.6 µM and the GI50 (SK-MEL-28 melanoma) was 14.4 µM. The TGI (SK-MEL-28 melanoma) was 27.6 µM, the GI50 (SK-MEL-2 melanoma) was 18 µM and the TGI (SK-MEL-2 melanoma) was 33 µM. The GI50 (U251 CNS) was 4.51 µM, the TGI (U251 CNS) was 16.9 µM and the GI50 (COLO 205 colon) was 16.7 µM. For the same compound, the TGI (COLO 205 colon) was 31.2 µM, the GI50 (SN12C renal) was 11.6 µM and the TGI (SN12C renal) was 23.8 µM. The GI50 (UACC-257 melanoma) was 14.5 µM, the TGI (UACC-257 melanoma) was 27.8 µM and the GI50 (ACHN renal) was 11.8 µM. For the same compound, the TGI (ACHN renal) was 24.2 µM, the GI50 (SF-295 CNS) was 16.1 µM and the TGI (SF-295 CNS) was 30 µM. For the same compound, the GI50 (HOP-62 NSCLC) was 14.5 µM, the TGI (HOP-62 NSCLC) was 28 µM and the GI50 (SW-620 colon) was 2.88 µM. For the same compound, the TGI (SW-620 colon) was 10.9 µM, the GI50 (SK-MEL-5 melanoma) was 15.6 µM and the TGI (SK-MEL-5 melanoma) was 29.4 µM. It also gave a GI50 (RXF 393 renal) of 15.8 µM, a TGI (RXF 393 renal) of 29.6 µM and a GI50 (KM12 colon) of 3.86 µM. The TGI (KM12 colon) was 14.9 µM, the GI50 (HCT-15 colon) was 8.51 µM and the TGI (HCT-15 colon) was 22.4 µM. The GI50 (HCT-116 colon) was 1.67 µM, the TGI (HCT-116 colon) was 3.16 µM and the GI50 (HCC-2998 colon) was 15.8 µM. The TGI (HCC-2998 colon) was 29.6 µM, the GI50 (NCI/ADR-RES ovarian) was 14.5 µM and the TGI (NCI/ADR-RES ovarian) was 28.9 µM. The GI50 (NCI-H23 lung) was 13.5 µM, the TGI (NCI-H23 lung) was 27.2 µM and the GI50 (TK-10 renal) was 18.6 µM. The TGI (TK-10 renal) was 32.7 µM, the GI50 (786-0 renal) was 17.2 µM and the TGI (786-0 renal) was 31 µM. It also gave a GI50 (DU-145 prostate) of 13.9 µM, a TGI (DU-145 prostate) of 27.2 µM and a GI50 (MCF7 breast) of 3.31 µM. For the same compound, the TGI (MCF7 breast) was 16.1 µM, the GI50 (SK-OV-3 ovarian) was 17.3 µM and the TGI (SK-OV-3 ovarian) was 31 µM. It also gave a GI50 (OVCAR-8 ovarian) of 14.1 µM, a TGI (OVCAR-8 ovarian) of 27.4 µM and a GI50 (SF-539 CNS) of 17.2 µM. For the same compound, the TGI (SF-539 CNS) was 31.1 µM.
For `CCNCCC1(CC)C(=O)NC(=O)NC1=O`, the TGI (MDA-MB-435) was greater than 100 µM, the TGI (A549 NSCLC) was greater than 100 µM and the TGI (HT29 colon) was greater than 100 µM. The TGI (OVCAR-3 ovarian) was greater than 100 µM, the TGI (OVCAR-4 ovarian) was greater than 100 µM and the TGI (HOP-92 NSCLC) was greater than 100 µM. For the same compound, the TGI (SF-268 CNS) was greater than 100 µM, the TGI (A498 renal) was greater than 100 µM and the TGI (BT-549 breast) was greater than 100 µM. The GI50 (CCRF-CEM leukemia) was greater than 100 µM, the TGI (CCRF-CEM leukemia) was greater than 100 µM and the TGI (CAKI-1 renal) was greater than 100 µM. For the same compound, the TGI (K-562 leukemia) was greater than 100 µM, the TGI (UO-31 renal) was greater than 100 µM and the TGI (M14 melanoma) was greater than 100 µM. For the same compound, the TGI (NCI-H460 lung) was greater than 100 µM, the TGI (UACC-62 melanoma) was greater than 100 µM and the TGI (MALME-3M melanoma) was greater than 100 µM. The TGI (MDA-MB-231 breast) was greater than 100 µM, the TGI (HS 578T breast) was greater than 100 µM and the TGI (LOX IMVI melanoma) was greater than 100 µM. It also gave a TGI (T-47D breast) greater than 100 µM, a TGI (OVCAR-5 ovarian) greater than 100 µM and a TGI (PC-3 prostate) greater than 100 µM. The TGI (RPMI-8226 leukemia) was greater than 100 µM, the TGI (SNB-19 CNS) was greater than 100 µM and the TGI (MOLT-4 leukemia) was greater than 100 µM. It also gave a TGI (NCI-H226 lung) greater than 100 µM, a TGI (SNB-75 CNS) greater than 100 µM and a TGI (SR leukemia) greater than 100 µM. It also gave a TGI (NCI-H522 lung) greater than 100 µM, a TGI (IGROV1 ovarian) greater than 100 µM and a TGI (SK-MEL-28 melanoma) greater than 100 µM. For the same compound, the TGI (SK-MEL-2 melanoma) was greater than 100 µM, the TGI (U251 CNS) was greater than 100 µM and the TGI (COLO 205 colon) was greater than 100 µM. For the same compound, the TGI (SN12C renal) was greater than 100 µM, the TGI (UACC-257 melanoma) was greater than 100 µM and the TGI (ACHN renal) was greater than 100 µM. The TGI (SF-295 CNS) was greater than 100 µM, the TGI (HOP-62 NSCLC) was greater than 100 µM and the TGI (SW-620 colon) was greater than 100 µM. The TGI (SK-MEL-5 melanoma) was greater than 100 µM, the TGI (RXF 393 renal) was greater than 100 µM and the TGI (KM12 colon) was greater than 100 µM. For the same compound, the TGI (HCT-15 colon) was greater than 100 µM, the TGI (HCT-116 colon) was greater than 100 µM and the GI50 (HCC-2998 colon) was greater than 100 µM. For the same compound, the TGI (HCC-2998 colon) was greater than 100 µM, the TGI (NCI/ADR-RES ovarian) was greater than 100 µM and the TGI (NCI-H23 lung) was greater than 100 µM. It also gave a TGI (TK-10 renal) greater than 100 µM, a TGI (786-0 renal) greater than 100 µM and a TGI (DU-145 prostate) greater than 100 µM. It also gave a TGI (MCF7 breast) greater than 100 µM, a TGI (EKVX NSCLC) greater than 100 µM and a TGI (SK-OV-3 ovarian) greater than 100 µM. For the same compound, the TGI (OVCAR-8 ovarian) was greater than 100 µM and the TGI (SF-539 CNS) was greater than 100 µM.

Source: PubChem BioAssay (NCI)
